How the values were obtained:
[1] = biological target: T1, human HIF-PHD2 (Homo sapiens, UniProt Q9GZT9); experiment: HIF-PHD inhibition assay (fluorescence polarization), human HIF-PHD2; type: biochemical; conditions: 2-oxoglutaric acid 3.33 μmol/L
T1 construct: purchased CrystalGenomics Ltd
Procedure, shortened: (§1)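 A 5′-fluoresceinamide-labelled substrate with aminocaproic acid linker is used. Enzyme activity is computed by subtracting pre-enzyme polarization from post-enzyme polarization, expressed in mP.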

[2] = biological target: T2, human HIF-PHD3 (Homo sapiens, UniProt Q9H6Z9); experiment: HIF-PHD inhibition assay (fluorescence polarization), human HIF-PHD3; type: biochemical; conditions: 2-oxoglutaric acid 166 μmol/L
T2 construct: purchased CrystalGenomics Ltd
T2 sequence (Q9H6Z9 whole entry): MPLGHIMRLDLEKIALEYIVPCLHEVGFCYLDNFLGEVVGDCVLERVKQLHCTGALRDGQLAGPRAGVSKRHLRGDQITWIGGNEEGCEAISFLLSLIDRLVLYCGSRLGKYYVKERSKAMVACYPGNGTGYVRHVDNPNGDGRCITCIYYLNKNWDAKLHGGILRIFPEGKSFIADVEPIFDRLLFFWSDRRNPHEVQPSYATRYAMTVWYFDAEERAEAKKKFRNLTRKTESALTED
Procedure, shortened: as §1

T1 sequence (Q9GZT9 2-426 limits assumed): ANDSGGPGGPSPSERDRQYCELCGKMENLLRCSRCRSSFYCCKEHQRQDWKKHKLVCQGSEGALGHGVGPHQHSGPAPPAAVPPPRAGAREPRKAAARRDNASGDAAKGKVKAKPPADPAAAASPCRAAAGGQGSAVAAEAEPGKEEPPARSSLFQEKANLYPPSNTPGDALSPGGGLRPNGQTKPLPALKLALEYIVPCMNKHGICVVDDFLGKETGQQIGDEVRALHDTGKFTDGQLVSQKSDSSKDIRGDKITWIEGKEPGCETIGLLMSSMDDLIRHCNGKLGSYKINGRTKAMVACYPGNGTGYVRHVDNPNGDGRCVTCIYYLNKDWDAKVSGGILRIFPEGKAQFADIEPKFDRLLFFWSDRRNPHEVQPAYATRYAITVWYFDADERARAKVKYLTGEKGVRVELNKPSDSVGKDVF

Row | IC50 [1] | IC50 [2] | SMILES
1 | 0.019 µM | 0.52 µM | C[C@@H](c1ccc(OC(F)(F)F)c(F)c1)n1ncc2nc(-n3cc(C(=O)O)cn3)nc(O)c21 [Example 317]
2 | 0.067 µM | 0.39 µM | CCC(c1ccc(C)c(Cl)c1)n1ncc2nc(-n3cc(C(=O)O)cn3)nc(O)c21 (single isomer, unassigned) [Example 349]
3 | 0.037 µM | 0.46 µM | CC1CC(n2ncc3nc(-n4cc(C(=O)O)cn4)nc(O)c32)CC(C)(C)C1 (centres unmarked) [Example 407]
4 | 0.066 µM | 0.34 µM | Cc1cc(C(C2CC2)n2ncc3nc(-n4cc(C(=O)O)cn4)nc(O)c32)ccc1F (single isomer, unassigned) [Example 377]
5 | 0.038 µM | 0.4 µM | C[C@@H](c1ccc2c(c1)CCCC2)n1ncc2nc(-n3cc(C(=O)O)cn3)nc(O)c21 [Example 290]
6 | 0.02 µM | 0.45 µM | C[C@@H](c1ccc(C(F)(F)F)c(F)c1)n1ncc2nc(-n3cc(C(=O)O)cn3)nc(O)c21 [Example 281]
7 | 0.1 µM | 0.89 µM | C[C@H](c1cc(Cl)cc(C(F)(F)F)c1)n1ncc2nc(-n3cc(C(=O)O)cn3)nc(O)c21 [Example 268]
8 | 0.045 µM | 0.5 µM | CC(c1cc(Cl)cc(Cl)c1)n1ncc2nc(-n3cc(C(=O)O)cn3)nc(O)c21 (centres unmarked) [Example 307]
9 | 0.066 µM | 0.66 µM | Cc1ccc(C(C)n2ncc3nc(-n4cc(C(=O)O)cn4)nc(O)c32)cc1Cl (centres unmarked) [Example 297]
10 | 0.12 µM | 0.54 µM | O=C(O)c1cnn(-c2nc(O)c3c(cnn3C(c3ccc(F)cc3)C3CC3)n2)c1 (centres unmarked) [Example 366]
11 | 0.054 µM | 0.51 µM | CC(c1cc(Cl)cc(Cl)c1)n1ncc2nc(-n3cc(C(=O)O)cn3)nc(O)c21 (single isomer, unassigned) [Example 308]
12 | 0.077 µM | 1.4 µM | C[C@@H](c1cc(Cl)ccc1F)n1ncc2nc(-n3cc(C(=O)O)cn3)nc(O)c21 [Example 282]
13 | 0.018 µM | 0.22 µM | Cc1cc(Cn2ncc3nc(-n4cc(C(=O)O)cn4)nc(O)c32)c(F)cc1-c1ccccc1F [Example 103]
14 | 0.081 µM | 0.84 µM | CC(C)[C@H]1CC[C@H](C)C[C@H]1n1ncc2nc(-n3cc(C(=O)O)cn3)nc(O)c21 [Example 404]
15 | 0.17 µM | 0.68 µM | CC(C)[C@@H]1CC[C@@H](C)[C@@H](n2ncc3nc(-n4cc(C(=O)O)cn4)nc(O)c32)C1 [Example 406]
16 | 0.016 µM | 0.089 µM | O=C(O)c1cnn(-c2nc(O)c3c(cnn3Cc3cc(F)c(-c4ccccc4F)cc3F)n2)c1 [Example 100]
17 | 0.079 µM | 0.98 µM | C[C@@H](c1cc(C(F)(F)F)cc(C(F)(F)F)c1)n1ncc2nc(-n3cc(C(=O)O)cn3)nc(O)c21 [Example 272]
18 | 0.092 µM | 0.61 µM | CC[C@@H](c1cccc(Cl)c1)n1ncc2nc(-n3cc(C(=O)O)cn3)nc(O)c21 [Example 343]
19 | 0.053 µM | 0.71 µM | CC(C)C(c1ccc(C(F)(F)F)cc1)n1ncc2nc(-n3cc(C(=O)O)cn3)nc(O)c21 (centres unmarked) [Example 356]
20 | > 0.3 µM | 1.2 µM | Cc1nn([C@@H](C)c2cccc(F)c2)c2c(O)nc(-n3cc(C(=O)O)cn3)nc12 [Example 449]
21 | 0.032 µM | 0.42 µM | CC[C@@H](c1ccc(OC(F)(F)F)c(F)c1)n1ncc2nc(-n3cc(C(=O)O)cn3)nc(O)c21 [Example 352]

Row | IC50 [1] | IC50 [2] | SMILES
22 | 0.035 µM | 0.4 µM | Cc1ccc(C(C2CC2)n2ncc3nc(-n4cc(C(=O)O)cn4)nc(O)c32)cc1 (single isomer, unassigned) [Example 369]
23 | 0.11 µM | 0.91 µM | O=C(O)c1cnn(-c2nc(O)c3c(cnn3CC(F)(F)c3ccc(Cl)cc3)n2)c1 [Example 125]
24 | 0.042 µM | 0.43 µM | CC1CC(n2ncc3nc(-n4cc(C(=O)O)cn4)nc(O)c32)CC(C)(C)C1 (single isomer, unassigned) [Example 410]
25 | 0.045 µM | 0.72 µM | O=C(O)c1cnn(-c2nc(O)c3c(cnn3C(c3cc(F)cc(F)c3)C3CC3)n2)c1 (centres unmarked) [Example 372]
26 | 0.056 µM | 0.38 µM | O=C(O)c1cnn(-c2nc(O)c3c(cnn3C(c3ccc(F)c(Cl)c3)C3CC3)n2)c1 (centres unmarked) [Example 370]
27 | 0.046 µM | 0.72 µM | O=C(O)c1cnn(-c2nc(O)c3c(cnn3[C@H]3CCc4ccccc43)n2)c1 [Example 397]
28 | > 0.3 µM | 1.2 µM | Cn1nc(-c2ccccc2)c2nc(-n3cc(C(=O)O)cn3)nc(O)c21 [Example 502]
29 | 0.13 µM | 0.58 µM | O=C(O)c1cnn(-c2nc(O)c3c(cnn3CC3(c4ccccc4)CCCC3)n2)c1 [Example 123]
30 | 0.02 µM | 0.43 µM | COc1cccc(OCCCn2ncc3nc(-n4cc(C(=O)O)cn4)nc(O)c32)c1 [Example 186]
31 | 0.044 µM | 0.67 µM | O=C(O)c1cnn(-c2nc(O)c3c(n2)c(Cl)nn3CC2CCCC2)c1 [Example 221]
32 | 0.12 µM | 0.59 µM | CCC(c1ccc(C)cc1)n1ncc2nc(-n3cc(C(=O)O)cn3)nc(O)c21 (single isomer, unassigned) [Example 329]
33 | 0.029 µM | 0.3 µM | Cc1ccc(C(C)n2ncc3nc(-n4cc(C(=O)O)cn4)nc(O)c32)cc1Cl (single isomer, unassigned) [Example 298]
34 | 0.023 µM | 0.6 µM | CC1CCCC(n2ncc3nc(-n4cc(C(=O)O)cn4)nc(O)c32)C1 (centres unmarked) [Example 400]
35 | 0.04 µM | 0.9 µM | Cc1ccc(F)c(C(C)n2ncc3nc(-n4cc(C(=O)O)cn4)nc(O)c32)c1 (centres unmarked) [Example 313]
36 | 0.028 µM | 0.66 µM | CC(C)[C@H]1CC[C@@H](n2ncc3nc(-n4cc(C(=O)O)cn4)nc(O)c32)CC1 [Example 390]
37 | 0.061 µM | 0.8 µM | Cc1ccc(F)c(C(C)n2ncc3nc(-n4cc(C(=O)O)cn4)nc(O)c32)c1 (single isomer, unassigned) [Example 314]
38 | 0.11 µM | 0.43 µM | C[C@@H](c1ccc(F)c(F)c1)n1nc(C2CC2)c2nc(-n3cc(C(=O)O)cn3)nc(O)c21 [Example 459]
39 | 0.099 µM | 0.63 µM | C[C@@H](c1ccc(F)cc1Cl)n1ncc2nc(-n3cc(C(=O)O)cn3)nc(O)c21 [Example 252]
40 | 0.013 µM | 0.14 µM | O=C(O)c1cnn(-c2nc(O)c3c(cnn3[C@H]3CCN(c4ccc(Cl)c(Cl)c4)C3)n2)c1 [Example 438]
41 | 0.042 µM | 0.37 µM | C[C@@H](c1cc(Cl)cc(C(F)(F)F)c1)n1ncc2nc(-n3cc(C(=O)O)cn3)nc(O)c21 [Example 269]
42 | 0.048 µM | 1.2 µM | CC1CCCC(n2ncc3nc(-n4cc(C(=O)O)cn4)nc(O)c32)C1 (single isomer, unassigned) [Example 401]

Row | IC50 [1] | IC50 [2] | SMILES
43 | 0.021 µM | 0.47 µM | Cc1nn(CCC2CCCCC2)c2c(O)nc(-n3cc(C(=O)O)cn3)nc12 [Example 231]
44 | 0.041 µM | 0.53 µM | CC(C)C[C@H](C)n1ncc2nc(-n3cc(C(=O)O)cn3)nc(O)c21 [Example 496]
45 | 0.012 µM | 0.46 µM | O=C(O)c1cnn(-c2nc(O)c3c(cnn3C(c3ccc(Cl)cc3)C3CC3)n2)c1 (single isomer, unassigned) [Example 365]
46 | 0.03 µM | 0.78 µM | CC1(C)CC(n2ncc3nc(-n4cc(C(=O)O)cn4)nc(O)c32)CC(C)(C)C1 [Example 387]
47 | 0.032 µM | 0.13 µM | O=C(O)c1cnn(-c2nc(O)c3c(cnn3Cc3ccc(-c4ccc(F)cc4F)cc3F)n2)c1 [Example 82]
48 | 0.072 µM | 0.41 µM | Cc1ccc(C(C2CC2)n2ncc3nc(-n4cc(C(=O)O)cn4)nc(O)c32)cc1 (centres unmarked) [Example 368]
49 | 0.015 µM | 0.14 µM | O=C(O)c1cnn(-c2nc(O)c3c(cnn3C[C@@H]3CCN(c4ccc(C(F)(F)F)cc4)C3)n2)c1 [Example 426]
50 | 0.054 µM | 0.59 µM | CC1CCCC(n2ncc3nc(-n4cc(C(=O)O)cn4)nc(O)c32)C1 (single isomer, unassigned) [Example 399]
51 | 0.062 µM | 0.49 µM | CC1(C)CC(=O)N(c2ccc(Cn3ncc4nc(-n5cc(C(=O)O)cn5)nc(O)c43)cc2)C1 [Example 420]
52 | 0.048 µM | 0.39 µM | CC1CCN(c2ccc(C(C)n3ncc4nc(-n5cc(C(=O)O)cn5)nc(O)c43)cc2)CC1 (racemic) [Example 425]
53 | 0.019 µM | 0.24 µM | O=C(O)c1cnn(-c2nc(O)c3c(cnn3C[C@H]3CCN(c4cccc(Cl)c4)C3)n2)c1 [Example 430]
54 | 0.094 µM | 1.1 µM | CC(C)CC(CC(C)C)n1ncc2nc(-n3cc(C(=O)O)cn3)nc(O)c21 [Example 490]
55 | 0.062 µM | 0.45 µM | CC(c1cc(F)cc(Cl)c1)n1ncc2nc(-n3cc(C(=O)O)cn3)nc(O)c21 (single isomer, unassigned) [Example 306]
56 | 0.038 µM | 0.4 µM | CC1CC(n2ncc3nc(-n4cc(C(=O)O)cn4)nc(O)c32)CC(C)(C)C1 (single isomer, unassigned) [Example 408]
57 | 0.11 µM | 1.2 µM | Cc1nn([C@H]2CC[C@H](C)CC2)c2c(O)nc(-n3cc(C(=O)O)cn3)nc12 [Example 483]
58 | 0.015 µM | 0.23 µM | CC(c1ccc(F)c(C(F)(F)F)c1)n1ncc2nc(-n3cc(C(=O)O)cn3)nc(O)c21 (single isomer, unassigned) [Example 304]
59 | 0.11 µM | 0.44 µM | CCC(C)(C)Cn1ncc2nc(-n3cc(C(=O)O)cn3)nc(O)c21 [Example 492]
60 | 0.039 µM | 0.78 µM | O=C(O)c1cnn(-c2nc(O)c3c(cnn3C(c3ccc(Cl)cc3)C3CC3)n2)c1 (centres unmarked) [Example 364]
61 | 0.03 µM | 1.7 µM | C[C@H](C1CCCCC1)n1ncc2nc(-n3cc(C(=O)O)cn3)nc(O)c21 [Example 145]
